Experimental findings from patent US20110009335A1, “Anticancer Treatments” (priority 2008, published 2011) are described below.

Structures are written as SMILES.

Series [1] relates to A498 human renal tumor xenograft. Kind of series: Aplidine with sunitinib, A498 xenograft in athymic nude mice (Example 2). The series is classed as in vivo. The note with it: doses tested; sunitinib 40 mg/kg. As for the experimental part:
(§1) Female athymic nude mice (Harlan Sprague Dawley, Madison, Wis.) were utilized for all experiments. Mice were implanted with tumor fragments or a cell suspension when mice were 5 weeks of age. Animals were housed in ventilated rack caging, 5 mice per cage, with food and water ad libitum. The mice were acclimated for 1 week prior to being implanted with tumor fragments or cell suspensions.
(§2) Tumor measurements were determined as disclosed in Example 1.
(§3) Body weights were recorded on treatment days and when tumor sizes were measured. In those days wherein the two drugs were administered the same day, the combination therapy groups were treated by co-administering the two drugs at the same time, with no attempt to sequence the treatments.
(§4) Aplidine was provided in the form of vials of lyophilized aplidine powder which was reconstituted in Cremophor EL/ethanol/water (CEW) 15/15/70 to a concentration of 0.5 mg/ml. The aplidine solution in CEW was diluted in 0.9% Saline to the dosing formulation concentrations, being the final proportion of CEW of 0.18/0.18/0.84. […]
(§5) Tumor size measurements were recorded twice weekly from the treatment initiation until the termination of the study.
(§6) Mean, standard deviation and standard error of the mean were determined for tumor volume for all animal groups at all assessments. […]

Series [2] concerns CAKI-1 human renal tumor xenograft. Kind of series: Aplidine with sunitinib, CAKI-1 xenograft in athymic nude mice (Example 2). The series is classed as in vivo. The settings on record: doses and schedules tested. As for the experimental part: as §1
Cells from in vitro passage 4-20 were implanted SC into study mice: 5×10^6 cells/mouse in 0.2 ml 50% Matrigel/50% medium without antibiotics or serum, using a 23 G needle and 1 cc syringe. Bacterial cultures were performed on aliquots of the cells prepared for implantation.
as §2
Body weights were recorded on treatment days and when tumor sizes were measured. In those days wherein the two drugs were administered the same day, the combination therapy groups were treated by co-administering the two drugs at the same time, with no attempt to sequence the treatments. […]
as §5, §6

The conditions of series [3]: mouse, in vivo.
Experimental: Body weight effects were determined by comparing each mouse body weight measurement with the initial body weight (first day of treatment).
The NCI activity criterion of body weight loss >20% was used to gauge compound toxicity.
Body weight effects were determined by comparing each mouse body weight measurement with the initial body weight (first day of treatment). The NCI activity criterion of body weight loss >20% was used to gauge compound toxicity.
For series [4], the system named is MRI-H-121 human renal tumor xenograft. Nature of the series: Aplidine with sunitinib, MRI-H-121 xenograft in athymic nude mice (Example 2). The settings on record: doses and schedules tested. Format: in vivo. As for the experimental part:
as §1, §2, §3, §4, §5, §6

Consider `CCN(CC)CCNC(=O)c1c(C)[nH]c(/C=C2\C(=O)Nc3ccc(F)cc32)c1C` [sunitinib], for which the “antitumor activity as single agent (monotherapy)” value was “did not reach the NCI criteria” in series [1], “inactive” in series [2] and “refractory” in series [4]. Besides, the “effect on body weight / toxicity” value in series [3] was “did not cause a significant decline in mean body weight”.
